Tests used:
Format in all cases: functional
[1] = species: Mus musculus; experiment: Effect on whole mouse brain 5-HT acid level after 1 day (control = 100+/-2)
[2] = species: Mus musculus; experiment: Effect on whole mouse brain 5-HT acid level after 1 week (control = 100+/-9)
[3] = species: Mus musculus; experiment: Effect on whole mouse brain 5-HT acid level after 3h (control = 100+/-6)
[4] = species: Mus musculus; experiment: Effect on whole mouse brain 5-hydroxyindoleacetic acid level after 1 day (control = 100+/-5)
[5] = species: Mus musculus; experiment: Effect on whole mouse brain 5-hydroxyindoleacetic acid level after 1 week (control = 100+/-10)
[6] = species: Mus musculus; experiment: Effect on whole mouse brain DOPAC level after 1 day (control = 100+/-6)
[7] = species: Mus musculus; experiment: Effect on whole mouse brain DOPAC level after 1 week (control = 100+/-9)
[8] = species: Mus musculus; experiment: Effect on whole mouse brain DOPAC level after 3h (control = 100+/-11)
[9] = species: Mus musculus; experiment: Effect on whole mouse brain acetylcholine level after 1 day (control = 100+/-5)
[10] = species: Mus musculus; experiment: Effect on whole mouse brain acetylcholine level after 1 week (control = 100+/-13)
[11] = species: Mus musculus; experiment: Effect on whole mouse brain acetylcholine level after 3h (control = 100+/-5)
[12] = species: Mus musculus; experiment: Effect on whole mouse brain choline level after 1 day (control = 100+/-9)
[13] = species: Mus musculus; experiment: Effect on whole mouse brain choline level after 1 week (control = 100+/-9)
[14] = species: Mus musculus; experiment: Effect on whole mouse brain choline level after 3h (control = 100+/-5)
[15] = species: Mus musculus; experiment: Effect on whole mouse brain dopamine level after 1 week (control = 100+/-10)
[16] = species: Mus musculus; experiment: Effect on whole mouse brain dopamine level after 3h (control = 100+/-3)
[17] = species: Mus musculus; experiment: Effect on whole mouse brain homovanillic acid level after 1 day (control = 100+/-3)
[18] = species: Mus musculus; experiment: Effect on whole mouse brain homovanillic acid level after 3h (control = 100+/-6)
[19] = species: Mus musculus; experiment: Effect on whole mouse brain norepinephrine level after 1 day (control = 100+/-3)
[20] = species: Mus musculus; experiment: Effect on whole mouse brain norepinephrine level after 1 week (control = 100+/-10)
[21] = species: Mus musculus; experiment: Effect on whole mouse brain norepinephrine level after 3h (control = 100+/-8)
[22] = species: Mus musculus; experiment: Effect on whole mouse brain 5-hydroxyindoleacetic acid level after 3h (control = 100+/-14)
[23] = species: Mus musculus; experiment: Effect on whole mouse brain homovanillic acid level after 1 week (control = 100+/-5)
[24] = species: Mus musculus; experiment: Effect on whole mouse brain 5-HT acid level after 1 day (control = 100+/-3)
[25] = species: Mus musculus; experiment: Effect on whole mouse brain 5-hydroxyindoleacetic acid level after 1 day (control = 100+/-6)
[26] = species: Mus musculus; experiment: Effect on whole mouse brain DOPAC level after 1 day (control = 100+/-4)
[27] = species: Mus musculus; experiment: Effect on whole mouse brain acetylcholine level after 1 day (control = 100+/-8)
[28] = species: Mus musculus; experiment: Effect on whole mouse brain choline level after 1 day (control = 100+/-1)
[29] = species: Mus musculus; experiment: Effect on whole mouse brain dopamine level after 1 day (control = 100+/-3)
[30] = species: Mus musculus; experiment: Effect on whole mouse brain homovanillic acid level after 1 day (control = 100+/-4)
[31] = species: Mus musculus; experiment: Effect on whole mouse brain norepinephrine level after 1 day (control = 100+/-5)

SMILES: CC1NCCc2c1[nH]c1ccc(O)c(-c3c(O)ccc4[nH]c5c(c34)CCNC5C)c21 (centres undefined)
- Control [1]: 111%
- Control [2]: 103%
- Control [3]: 107%
- Control [4]: 135%
- Control [5]: 99%
- Control [6]: 93%
- Control [7]: 96%
- Control [8]: 81%
- Control [9]: 78%
- Control [10]: 94%
- Control [11]: 98%
- Control [12]: 97%
- Control [13]: 107%
- Control [14]: 83%
- Control [15]: 98%
- Control [16]: 98%
- Control [17]: 107%
- Control [18]: 90%
- Control [19]: 105%
- Control [20]: 111%
- Control [21]: 93%
- Control [22]: 86%
- Control [23]: 100%

SMILES: CC1NCCc2c1[nH]c1ccc(O)c(-c3c(O)ccc4[nH]c5c(c34)CCNC5C)c21 (stereo in doubt; 5)
- Control [24]: 94%
- Control [25]: 146%
- Control [26]: 97%
- Control [27]: 87%
- Control [28]: 77%
- Control [29]: 90%
- Control [30]: 115%
- Control [31]: 102%

SMILES: CC1NCCc2c1[nH]c1ccc(O)c(-c3c(O)ccc4[nH]c5c(c34)CCNC5C)c21 (stereo in doubt; 6)
- Control [24]: 107%
- Control [25]: 163%
- Control [26]: 101%
- Control [27]: 73%
- Control [28]: 97%
- Control [29]: 96%
- Control [30]: 132%
- Control [31]: 104%

Source: ChEMBL document CHEMBL1126027, “Oxidation chemistry and biochemistry of the central mammalian alkaloid 1-methyl-6-hydroxy-1,2,3,4-tetrahydro-beta-carboline” (1992)
